From patent US20100029643A1 (ASTRAZENECA AB, priority 2006, published 2010)

Biological target: T1, Edg-1/S1P1 receptor (Homo sapiens, UniProt P21453)
T1 construct: expressed in transfected cells; host or cells: human osteogenic sarcoma U2OS cells: Edg-1 Transfluor U2OS WT Clone #37 (assay I), Edg-1 Transfluor U2OS Clone #3 (assay II)
Assay: In vitro cell based receptor activation assay - Transfluor assay (assay I or II; beta-arrestin GFP relocalization after S1P stimulation)
Conditions: for inhibition at 3.7 µM: at 3.70 μM (titrated from top concentration 100 μM); for inhibition at 3.5 µM: at 3.50 μM (titrated from top concentration 10 μM); for inhibition at 3.3 µM: at 3.30 μM (run with this as top concentration)
Summary of the method: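 U2OS cells overexpressing S1P1 with a beta-arrestin-GFP construct were pre-incubated with compound for 15 min at room temperature, then stimulated with S1P for 45 min at 37 °C. In assay I, final S1P was 375 nM or 750 nM and compound was a 9-point 3-fold series from 100 μM, in 1% DMSO. Cells were fixed and Hoechst-stained, GFP relocalization was imaged, and EC50 values were fitted.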

T1 sequence (P21453 whole entry): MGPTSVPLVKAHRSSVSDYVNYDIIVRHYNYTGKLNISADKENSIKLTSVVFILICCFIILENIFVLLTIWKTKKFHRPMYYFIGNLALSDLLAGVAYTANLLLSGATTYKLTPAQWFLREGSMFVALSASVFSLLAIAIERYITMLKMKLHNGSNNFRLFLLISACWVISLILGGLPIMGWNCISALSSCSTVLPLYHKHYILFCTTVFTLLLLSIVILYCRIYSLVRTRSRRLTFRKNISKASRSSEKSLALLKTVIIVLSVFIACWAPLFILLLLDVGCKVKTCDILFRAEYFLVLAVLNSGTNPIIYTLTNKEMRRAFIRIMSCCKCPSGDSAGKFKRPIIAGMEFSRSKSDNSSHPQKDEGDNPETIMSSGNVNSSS

Row | Compound | inhibition at 3.7 µM | inhibition at 3.5 µM | other results
1 | CCn1c([C@@H](C)NS(=O)(=O)c2cnc(C)n2C)nc2ccc(C(F)(F)F)cc21 [Example 32, N-{(1R)-1-[1-Ethyl-6-(trifluoromethyl)-1H-benzimidazol-2-yl]ethyl}-1,2-dimethyl-1H-imidazole-5-sulfonamide] | 66.5% | – | –
2 | CCn1c([C@@H](C)NS(=O)(=O)c2ccc(C#N)nc2)nc2cnc(C(F)(F)F)cc21 [Example 148, (R)-6-Cyano-N-(1-(1-ethyl-6-(trifluoromethyl)-1H-imidazo[4,5-c]pyridin-2-yl)ethyl)pyridine-3-sulfonamide] | – | 93% | –
3 | CCn1c(C(C)(C)NS(=O)(=O)c2ccc(C#N)cc2)nc2ncccc21 [Example 176, 4-Cyano-N-[1-(1-ethyl-1H-imidazo[4,.5-b]pyridin-2-yl)-1-methylethyl] benzenesulfonamide] | – | 36.3% | –
4 | CCn1c([C@@H](C)NS(=O)(=O)c2cccs2)nc2ccc(C(F)(F)F)cc21 [Example 39, N-{(1R)-1-[1-Ethyl-6-(trifluoromethyl)-1H-benzimidazol-2-yl]ethyl}thiophene-2-sulfonamide] | – | 92.5% | –
5 | CC(NS(=O)(=O)c1ccc(Cl)cc1)c1nc2ccccc2n1CC(F)(F)F (stereo not shown) [Example 23, 4-Chloro-N-{1-[1-(2,2,2-trifluoro-ethyl)-1H-benzimidazol-2-yl]-ethyl}-benzenesulfonamide] | 88.1% | – | –
6 | CCn1c([C@@H](C)NS(=O)(=O)c2ccc(C#N)cn2)nc2ccc(C(F)(F)F)cc21 [Example 114, (R)-5-Cyano-N-(1-(1-ethyl-6-(trifluoromethyl)-1H-benzo[d]imidazol-2-yl)ethyl)pyridine-2-sulfonamide] | – | 72% | –
7 | CCn1c([C@@H](C)NS(=O)(=O)c2ccc(NN)nc2)nc2ccc(C(F)(F)F)cc21 [Example 168, (R)—N-(1-(1-ethyl-6-(trifluoromethyl)-1H-benzo[d]imidazol-2-yl)ethyl)-6-hydrazinylpyridine-3-sulfonamide] | – | 77.1% | –
8 | CCn1c([C@@H](C)NS(=O)(=O)C2CC2)nc2ccc(C(F)(F)F)cc21 [Example 38, N-{(1R)-1-[1-Ethyl-6-(trifluoromethyl)-1H-benz-imidazol-2-yl]ethyl}cyclo-propanesulfonamide] | 35.1% | – | –
9 | CCn1c(C(C)(C)NS(=O)(=O)c2ccc(C#N)nc2)nc2cnc(C(F)(F)F)cc21 [Example 155, 6-Cyano-N-(2-(1-ethyl-6-(trifluoromethyl)-1H-imidazo[4,5-c]pyridin-2-yl)propan-2-yl)pyridine-3-sulfonamide] | – | 78.9% | –
10 | CCn1c(C2(NS(=O)(=O)c3ccc(Cl)cc3)CC2)nc2ccc(C(F)(F)F)cc21 [Example 142, 4-Chloro-N-{1-[1-ethyl-6-(trifluoromethyl)-1H-benzimidazol-2-yl]cyclopropyl}benzenesulfon amide] | – | 80.5% | –
11 | CCn1c(C(C)NS(=O)(=O)c2ccc(N)nc2)nc2ccc(C(F)(F)F)cc21 (stereo not shown) [Example 170, 6-amino-N-(1-(1-ethyl-6-(trifluoromethyl)-1H-benzo[d]imidazol-2-yl)ethyl)pyridine-3-sulfonamide] | – | 83.1% | –
12 | CCn1c([C@@H](C)NS(=O)(=O)c2ccc(NC)nc2)nc2ccc(C(F)(F)F)cc21 [Example 182, N-{(1R)-1-[1-Ethyl-6-(trifluoromethyl)-1H-benzimidazol-2-yl]ethyl}-6-(methylamino)pyridine-3-sulfonamide] | – | 92.5% | –
13 | CCn1c([C@@H](C)NS(=O)(=O)c2ccc(C#N)nc2)nc2cnc(OC)cc21 [Example 151, (R)-6-Cyano-N-(1-(1-ethyl-6-methoxy-1H-imidazo[4,5-c]pyridin-2-yl)ethyl)pyridine-3-sulfonamide] | – | 91.7% | –
14 | CCn1c([C@@H](C)NS(=O)(=O)c2ccc([N+](=O)[O-])cc2)nc2ccc(C(F)(F)F)cc21 [Example 110, (R)-N-(1-(1-Ethyl-6-(trifluoromethyl)-1H-benzo[d]imidazol-2-yl)ethyl)-4-nitrobenzenesulfonamide] | – | 92.4% | –
15 | CCn1cc(S(=O)(=O)N[C@H](C)c2nc3ccc(C(F)(F)F)cc3n2CC)cn1 [Example 121, 1-ethyl-N-{(1R)-1-[1-Ethyl-6-(trifluoromethyl)-1H-benzimidazol-2-yl]ethyl}-1H-pyrazole-4-sulfonamide] | – | – | inhibition at 3.3 µM: 74%
16 | CCn1c([C@@H](C)NS(=O)(=O)c2cccnc2)nc2ccc(C(F)(F)F)cc21 [Example 126, (R)—N-(1-(1-ethyl-6-(trifluoromethyl)-1H-benzo[d]imidazol-2-yl)ethyl)pyridine-3-sulfonamide] | – | 92.8% | –
17 | CCn1c([C@@H](C)NS(=O)(=O)c2cncc(Br)c2)nc2ccc(C(F)(F)F)cc21 [Example 162] | – | 90.3% | –
18 | CCn1c([C@@H](C)NS(=O)(=O)C2=Cc3ccccc3CC2)nc2ccc(C(F)(F)F)cc21 [Example 119, M-{(1R)-1-[1-Ethyl-6-(trifluoromethyl)-1H-benzimidazol-2-yl]ethyl}-3,4-diyhydronaphthalene-2-sulfonamide] | – | – | inhibition at 3.3 µM: 71.7%
19 | CCn1c([C@@H](C)NS(=O)(=O)c2ccc3c(c2)OCCN3C)nc2ccc(C(F)(F)F)cc21 [Example 43, N-{(1R)-1-[1-Ethyl-6-(trifluoromethyl)-1H-benzimidazol-2-yl]ethyl}-4-methyl-3,4-dihydro-2H-1,4-benzoxamide-7-sulfonamide] | – | 93.3% | –

Continued, in another order:

Row | inhibition at 3.7 µM | inhibition at 3.5 µM | Compound | other results
20 | 62.4% | – | CCn1c([C@@H](C)NS(=O)(=O)c2ccc(Cl)cc2)nc2nnc(Cl)cc21 [Example 87, 4-Chloro-N-[(1R)-1-(3-chloro-5-ethyl-5H-imidazo[4,5-c]pyridazin-6-yl)ethyl]benzenesulfonamide] | –
21 | 72.8% | – | CCn1c(C(C)NS(=O)(=O)c2ccc(Cl)cc2)nc2cnccc21 (stereo not shown) [Example 13, 4-Chloro-N-[1-(1-ethyl-1H-imidazo[4,5-c]pyridin-2-yl)ethyl]benzene sulfonamide] | –
22 | 54.9% | – | CCn1c([C@@H](C)NS(=O)(=O)c2ccc(Cl)cc2)nc2cc(OC)c(OC)cc21 [Example 61, 4-Chloro-N-[(1R)-1-(1-ethyl-5,6-dimethoxy-1H-benzimidazol-2-yl)ethyl]benzenesulfonamide] | –
23 | 58.4% | – | CCn1c([C@@H](C)NS(=O)(=O)c2ccc(Cl)cc2)nc2cc(CO)ccc21 [Example 78, 4-Chloro-N-{(1R)-1-[1-ethyl-5-(hydroxymethyl)-1H-benzimidazol-2-yl]ethyl}benzenesulfonamide] | –
24 | 77.3% | – | CCn1c([C@@H](C)NS(=O)(=O)c2ccc(Cl)cc2)nc2ccc(C(N)=O)cc21 [Example 71, 2-(1-{[(4-Chlorophenyl)sulfonyl]amino}-ethyl)-1-ethyl-1H-benz-imidazole-6-carboxamide] | –
25 | – | 88.2% | CCn1c([C@@H](C)NS(=O)(=O)c2ccc(Cl)cc2)nc2cnc(C3CC3)cc21 [Example 98, 4-Chloro-N-[(1R)-1-(6-cyclopropyl-1-ethyl-1H-imidazo[4,5-c]pyridin-2-yl)ethyl]benzenesulfonamide] | –
26 | – | 93.8% | CCn1c([C@@H](C)NS(=O)(=O)c2ccc(Cl)cc2)nc2cnccc21 [Example 102, 4-Chloro-N-[(1R)-1-(1-ethyl-1H-imidazo[4,5-c]pyridin-2-yl)ethyl]benzenesulfonamide] | –
27 | 62.3% | – | CCn1c([C@@H](C)NS(=O)(=O)c2ccc(Cl)cc2)nc2cc(Br)c(C(F)(F)F)cc21 [Example 93, N-{(1R)-1-[5-Bromo-1-ethyl-6-(trifluoromethyl)-1H-benzimidazol-2-yl]ethyl}-4-chlorobenzenesulfonamide] | –
28 | 94.6% | – | CCn1c([C@@H](C)NS(=O)(=O)c2ccc(Cl)cc2)nc2cccc(C)c21 [Example 66, 4-Chloro-N-[(1R)-1-(1-ethyl-7-methyl-1H-benzimidazol-2-yl)ethyl]benzenesulfonamide] | –
